Positions of bridges follow the written chain, without caps; N, C: chain ends. Residues, ends and D or L forms follow the SMILES beside them. No end group written: not given here.

The test system of series [1] is human zona-free oocytes and spermatozoa. Format: cell-based. Here is the method:
(§1) Patients donated said oocytes for research purposes and signed a consent form approved by the Institutional Review Board of the Aulnay-sous-Bois hospital.
These oocytes aged 48 hours or matured in vitro were not or were no longer capable of producing an embryo. Moreover, the polyspermy blocking mechanism which ensures that the embryo will be diploid is located in the zona pellucida of the oocyte. By removing the zona pellucida of these oocytes, this protective mechanism is abolished, leading to nonviable polyspermic zygotes in the event of gamete fusion. Finally, as embryo development occurs inside the zona pellucida for the first six days, the absence of the latter precludes said development from taking place.
(§2) To maintain the oocyte membrane as close as possible to its natural state, the inventors removed the zona pellucida mechanically with microsurgical scissors.
Sperm from fertile donors was collected after three days of abstinence and prepared as for IVF. […]
Functional tests of inhibition of fusion were carried out in conditions similar to those used for IVF, that is, in conditions sufficiently close to physiological conditions since they enable pregnancy and fetuses. […] The slides were analyzed under a Zeiss Axiophot microscope equipped with a camera connected to Imaging System Package image analysis software (Applied Imaging, Newcastle-upon-Tyne, UK). […]

In a further series the test system is human oocyte membrane. Description: Detection of biotinylated FEEc peptide at the surface of human oocytes (immunofluorescence, confocal microscopy). Format: binding. The following applies: 200 μM biotinylated peptide, 45 minutes, FIG. 1. Here is the method:
as §1, §2
The oocytes were incubated with 200 μM biotinylated FEEc peptide for 45 minutes.
The zona pellucida was mechanically removed from the oocytes which were then incubated for 45 minutes with […] biotinylated peptide. The FEEc peptide was detected with a mouse anti-biotin antibody recognized by a biotinylated anti-mouse immunoglobulin antibody then by streptavidin-FITC. The oocytes were then mounted in immunomount between the coverslip and the slide and examined under a confocal microscope, B: superimposition of sections corresponding to a hemi-oocyte.

For `N[C@H]1CSSC[C@@H](C(=O)O)NC(=O)[C@H](CCC(=O)O)NC(=O)[C@H](CCC(=O)O)NC(=O)[C@H](Cc2ccccc2)NC(=O)[C@H](CO)NC1=O` [FEEc, CSFEEC] (H-CSFEEC-OH; disulfide 1-6), the “toxic effect on oocytes” value in series [1] is recorded as “no toxic effect on oocytes”.

In the case of “biotinylated FEEc: FEEc cyclic peptide labelled with biotin for detection on oocytes (CSFEEC; disulfide 1-6 (inferred); also: biotinylated (position not given here))”, the “labelling of the oocyte membrane with the peptide” value in the series with human oocyte membrane was “labelling of the membrane”.

The values are drawn from patent US9238807B2, “Peptide increasing fusiogenic capacity of a gamete” (UNIVERSITE PARIS 13, priority 2003, dated 2016).
